Laboratory results: patent publication US20090075867A1, “Triazine compounds and compositions thereof for the treatment of cancers” (priority 2005, published 2009)
Read-outs that look alike come from different tables or passages of the source.

What was measured:
DA-3 breast tumors = test: Antitumor effects on a primary DA-3 breast tumor; type: in vivo, BALB/c mice
Protocol: (§1) The syngeneic tumor DMBA3 (DA-3, breast carcinoma model) arose from a preneoplastic lesion treated with 7,12-dimethylbenzanthracene in female BALB/c mice. DA-3 cells were grown as monolayer cultures in plastic flasks in RPMI-1640 containing 0.1 mM nonessential amino acids, 0.1 μM sodium pyruvate, 2 mM L-glutamine. This was further supplemented with 50 μM 2-mercaptoethanol and 10% fetal bovine serum. The DA-3 tumors were serially passage in vivo by intradermal inoculation of 5×10^5 viable tumor cells to produce localized tumors in 6- to 8-week old BALB/c mice. The animals were then serially monitored by manual palpation for evidence of tumor. Mice were treated at day 11, 18 and 25 with cyclophosphamide (100 mg/kg) and at day 11, 12, 13, 15, 18, 20, 22, 25, 27 and 29 with compound 1, 2, 3 or 8 (50 mg/kg). Mice were sacrificed at day 43. Serial tumor volume was obtained by bi-dimensional diameter measurements with calipers, using the formula 0.4 (a×b^2) where “a” was the major tumor diameter and “b” the minor perpendicular diameter. […] The National Cancer Institute (USA) defines the product as effective if T/C is ≦40%.
In other trials, mice were treated with one intratumoral injection of compound 2 or cyclophosphamide (three doses) or intratumoral injection of compound 2 in combination with cyclophosphamide.

[1] = tested on: CAKI-2, human kidney cell; test: In vitro cytotoxicity (MTT) on CAKI-2; type: cell-based
Protocol: (§2) This assay was performed to determine the effect of compounds of the present invention on cell cytotoxicity. Cells were incubated in presence or absence of compounds in their respective conditioned media. […] The supernatant was discarded and 100 μl of dimethylsulfoxide (DMSO) was added. Absorbance was read at […] with an ELISA Tecan SUNRISE™ plate reader. The control group consisted of cells without compounds and is referred to as 100% of viable cells. IC50 was determined using PRISM® software.
(§3) The predictive utility of cell-based cytotoxicity assays to assess the potential in vivo anticancer activity of compounds with selected cancer cell lines is well established in the art and the use of whole cells, instead of isolated protein receptors or enzymes, provides a more reliable determination of activity. See, for example, Paull et al. J. Natl. Cancer Inst. 81:1088-1092 (1989); Monks et al. J. Natl. Cancer Inst. 83:757-766 (1991); Bandes et al. J. Natl. Cancer Inst. 86:770-775 (1994); and Kamate et al. Intl. J. Cancer 100:571-579 (2002).

[2] = tested on: NHDF, Normal Human Dermal Fibroblast; test: In vitro cytotoxicity (MTT) on NHDF; type: cell-based
Protocol: as §2, §3

[3] = tested on: B16F10, murine melanoma cell; test: In vitro cytotoxicity (MTT) on B16F10; type: cell-based; details: Mus musculus, B16-F10
Protocol: as §2, §3

B16F10 primary tumors = test: Antitumor effects on a primary B16F10 melanoma tumor; type: in vivo, C57BL/6 mice; details: 50 mg/kg i.v. on day 14, 16 and 18
Protocol: Female 6-8 week old C57BL/6 mice were injected intradermally on day 0 with 3.75×10^4 B16F10 melanoma cells from ATCC (source of cell culture, Dr. I. J. Fidler). On day 14, tumors reached […] and animals were randomized for treatments. Animals were then injected i.v. with saline (negative control) or compounds (50 mg/kg) on day 14, 16 and 18 or 10 mg/kg doxorubicin (Dox, positive control) on day 14. Mice were sacrificed on day 29. Body weight and tumor volume were recorded. Serial tumor volume was obtained by bi-dimensional diameter measurements with calipers, using the formula 0.4 (a×b^2) where “a” was the major tumor diameter and “b” the minor perpendicular diameter.
T/C is calculated as (Treated tumor volume/Control tumor volume)×100%. Compound 2 induced a weak reduction (T/C around 70%) of the tumor volume compared to the control.

[4] = tested on: P815, murine mastocytoma cell; test: In vitro cytotoxicity (MTT) on P815; type: cell-based; details: Mus musculus
Protocol: as §2, §3

[5] = tested on: PC-3, human prostate carcinoma cell; test: In vitro cytotoxicity (MTT) on PC-3; type: cell-based
Protocol: as §2, §3

Hep-G2, human liver cell = test: In vitro cytotoxicity (MTT) on Hep-G2; type: cell-based
Protocol: as §2, §3

[6] = tested on: PBML, Peripheral Blood Mononuclear Leukocytes; test: In vitro cytotoxicity (MTT) on PBML; type: cell-based; details: Leukocyte
Protocol: as §2, §3

DA-3 = test: In vitro cytotoxicity (MTT) on DA-3; type: cell-based, BALB/c mice; details: Mus musculus
Protocol: as §2, §3, §1

B16F10 lung metastases = type: in vivo; details: for inhibition of the number of tumor nodules in lungs: FIG. 3, 50 mg/kg i.v. on day -3, -2, -1, 3, 5 and 7, p<0.001; for reduction of the number of tumor nodules: FIG. 4
Protocol: Female 6-8-week old C57BL/6 mice were injected intravenously on day 0 with 1-2.5×10^5 B16F10 melanoma cells from ATCC (source of cell culture, Dr. I. J. Fidler). B16F10 melanoma cells are a highly metastatic cell line which preferentially forms nodules in the lungs. Cells were cultured in DMEM supplemented with 10% fetal bovine serum. […] Fourteen days after inoculation, mice were sacrificed and their lungs were removed, rinsed in PBS, and placed in Bouin's fixative. The number of metastatic nodules (black colonies) on the surface of the lungs were counted.

[7] = FIG. 8, combination of cyclophosphamide and intratumoral injection of compound 2

Compound	IC50 ([2]; 24-hour cell culture) [µM]	IC50 ([2]; 72-hour cell culture) [µM]	IC50 ([3]; 24-hour cell culture) [µM]	IC50 ([4]; 24-hour cell culture) [µM]	IC50 ([4]; 72-hour cell culture) [µM]	IC50 ([5]; 24-hour cell culture) [µM]	IC50 ([5]; 72-hour cell culture) [µM]	IC50 ([6]; 24-hour cell culture) [µM]	IC50 ([6]; 72-hour cell culture) [µM]	IC50 (DA-3; 24-hour cell culture) [µM]	inhibition of the number of tumor nodules in lungs (B16F10 lung metastases)	also measured
Nc1ccc(CCNc2nc(Nc3ccc(CCNc4nc(NCCO)nc(Nc5cccc(N)c5)n4)cc3)nc(Nc3cccc(N)c3)n2)cc1 [Compound 2]	> 100	16	1	66.5	2.2	2.3	4	> 100	10	2	significant inhibition	T/C, inhibition of tumor volume (DA-3 breast tumors; [7]): 10%; total tumor regressions at day 46 (DA-3 breast tumors; [7]): four; total tumor regression at day 46 (DA-3 breast tumors; FIG. 8, one intratumoral injection of compound 2 alone): one; IC50 ([1]; 24-hour cell culture): > 40 µM; IC50 ([1]; 72-hour cell culture): > 40 µM; IC50 ([3]; 72-hour cell culture): 1 µM; T/C (Treated tumor volume/Control tumor volume) (B16F10 primary tumors; FIG. 1 trial): around 70%; IC50 (Hep-G2, human liver cell; HepG2, 24-hour cell culture): > 40 µM; IC50 (Hep-G2, human liver cell; HepG2, 72-hour cell culture): > 40 µM; IC50 (DA-3; 72-hour cell culture): 1.9 µM; reduction of the number of tumor nodules (B16F10 lung metastases; compound 2 in combination with doxorubicin (1 mg/kg)): 95%; reduction of the number of tumor nodules (B16F10 lung metastases; used alone, compound 50 mg/kg i.v., doxorubicin 1 mg/kg): 87%
Nc1ccc(CCNc2nc(NCCCCO)nc(Nc3cccc(N)c3)n2)cc1 [Compound 8]	> 100	> 100	33	> 100	92	94	100	> 100	> 100	85	significant inhibition	inhibition of the tumor volume (DA-3 breast tumors; FIG. 6, 50 mg/kg): All compounds except compound 8 induced a significant inhibition; T/C (Treated tumor volume/Control tumor volume) (B16F10 primary tumors; FIG. 2 trial): around 70%
